Assay results reported in article PMC9653409, “Generative deep learning enables the discovery of a potent and selective RIPK1 inhibitor” (Nature Communications, 2022).
Several values for one entry are separate records, joined by “and”; a condition that tells them apart may be missing. Equal entries are not always repeated.

Assays:
HT29 cells = test: Dual staining with CytoCalcein Violet 450 and 7-AAD after TSZ; type: cell-based; details: for Dead cell ratio (%): TSZ 24 h, replicates 1-4
Experimental: The assay of dual staining with CytoCalcein Violet 450 and 7-AAD was performed in a 24-well cell culture plate. Cells were plated in each well and cultured at 37 °C overnight. […] Then use CytoCalcein Violet 450 and 7-AAD to double stain the HT29 cells and observe under the microscope. All images were acquired with an Eclipse Ci-L microscope (Nikon, Japan). The dead cells were measured with Image J software, and the data was analyzed with GraphPad software. The experiment was repeated three times.

[1] = system: phosphorylation of RIPK1, RIPK3, and MLKL; test: Western blot of necroptotic signaling proteins in HT29 cells; type: cell-based, human; details: HT29, TSZ
Experimental: Cell pellets were collected and resuspended in RIPA lysis buffer (Beyotime), to which phenylmethylsulfonyl fluoride, a […], and a phosphatase inhibitor cocktail (Sigma) had been added. […] The supernatants were collected and subjected to western blot analysis.
The cell proteins or tissue proteins were separated in a polyacrylamide gel and transferred to a methanol-activated polyvinylidene fluoride membrane. The membrane was blocked for 2 h in Tris-buffered saline plus Tween-20 containing 5% milk and then immunoblotted sequentially with primary and secondary antibodies. Detection was performed with an ECL chemiluminescence kit (Abbkine). […]

DSS-induced IBD = DSS-induced IBD mouse model: colon length; type: in vivo, C57BL/6 female mice
Experimental: DSS (3% w/v) was administered in drinking water ad libitum for 7 d (from day 0 to day 7). DSS solution was replaced three times on day 2, day 4, and day 6. […] Three mice in each group were killed at random on day 7, and distal colon tissues were collected for analysis. The mice weight and survival rate were recorded daily.

[2] = Maximum tolerated dose study in mice

CC(C)C(=O)Nc1nc2cc(-c3ccc4c(c3)c(C(=O)NC(C)c3ccccc3)cn4C)ccn2n1 (centres unmarked) [RI-962]
Dead cell ratio (%) (HT29 cells; 3 nM): 15.55% and 9.32% and 10.06% and 11.13%
Dead cell ratio (%) (HT29 cells; 10 nM, listed as RI-963): 9.02% and 6.38% and 5.61% and 6.01%
TSZ-induced necroptosis, dual staining (HT29 cells; HT29, 24 h): inhibited TSZ-induced necroptosis and improved cell survival in a concentration-dependent manner
phosphorylation of RIPK1, RIPK3 and MLKL in intact cells [1]: markedly inhibited the phosphorylation of RIPK1 and its downstream signaling proteins RIPK3 and MLKL in a dose-dependent manner
DSS-induced shortening of colon length (DSS-induced IBD; 40 mg/kg i.p. once a day, day 7): markedly reduced
Colon Length (DSS-induced IBD; Figure 9b, individual replicates 1-3): 52.0 mm and 54.0 mm (2×)
impact on mouse organs (H&E staining) ([2]; 250mg/kg): no obvious impact on different mouse organs
tolerability observations ([2]; doses up to 250 mg/kg): no observed weight loss and no other side effects
